Measured values published in patent US8063104B2, “Guanidine derivatives as inhibitors of DDAH” (UCL Business PLC, priority 2004, dated 2011).
Where “and” joins values, the source holds several entries; their conditions need not be identical. Equal entries are not always repeated.

What was measured:
rat aortic rings [1] = test: Endotoxin-induced hyporeactivity to vasoconstrictors in rat aortic rings; format: cell-based; conditions: endotoxin 0.3 μg/ml, compound 100 μM and 200 μM
Description: Incubation of rat aortic rings with endotoxin (0.3 μg/ml) led to the development of hyporeactivity to vasoconstrictors.

eNOS = eNOS assay ([14C]arginine conversion); format: biochemical; conditions: eNOS activity
Description: Compounds to be tested were added to NOS assay buffer (HEPES 50 mM pH 7.2, FAD 5 μM, FMN 5 μM, BH4 10 μM, NADPH 1 mM, DTT 0.5 mM, CaCl2 1 mM, MgCl2 1 mM, calmodulin 50 nM, [^14C] arginine 100 μM) in a final volume of 100 μl and the reaction was initiated by addition of eNOS (eNOS 3.3. U/reaction, Alexis Biochemicals). Reactions were incubated for 1 h at 37° C. and the reaction was terminated by the addition of Dowex pH 5.5 (0.85 ml) to each tube. Tubes were vortexed and microfuged <12000 g, 5 min. 100 μl of the Dowex supernatant was added to 5 ml scintillation cocktail and was counted in a scintillation counter (Hewlett Packard). The compounds were tested at 1 mM and 0.1 mM concentrations. Activity is expressed as % of control where control contained no inhibitor, n=4. The DDAH inhibitors of the present invention tested had no significant effect on eNOS activity.

[2] = Endotoxin-induced fall in systemic blood pressure in anaesthetized rat; format: in vivo; conditions: endotoxin 40 mg/kg, infusion 30 mg/kg/hr
Description: Effects of intervention after 2-3 hours (when blood pressure had fallen to 80% of baseline pre LPS blood pressure) with 30 mg/kg/hr infusion of SR291; Injection of endotoxin (40 mg/kg) into rats caused a progressive fall in systemic BP. The decline was halted by infusion of 30 mg/kg/hr SR291.

iNOS = biological target: T1, iNOS (Mus musculus, UniProt P29477); test: iNOS activity Greiss assay in stimulated RAW cells; format: cell-based; conditions: Griess NOx, RAW cells stimulated 24 h with LPS/IFN and TNF, compound 0.5 mM, 550 nm; control 0.367 ± 0.021
T1 construct: endogenous in cells; host or cells: RAW cells stimulated with LPS/IFN and TNF
Description: RAW cells were stimulated for 24 h with LPS/IFN and TNF, in the presence of the DDAH inhibitor compounds (0.5 mM). Levels of NOx secreted into the media by the cells were determined by Griess assay: Greiss reagent [1:1 sulfanilamide ([…]) in ortho-phosphoric acid (50%) and N-(1-napthyl)ethylenediamine dihydrochloride (1%)] was added as 100 μl volume to 100 μl cell culture media and the plate was read at 550 nm and analysed in relation to sodium nitrite and nitrate standards.

[3] = test system: zymosan-induced peritonitis; test: Zymosan-induced peritonitis, C57/Blk6 mice; format: in vivo
Description: (§1) The effects of a DDAH inhibitor on zymosan-induced peritonitis were tested in two different strains of mice. C57/Blk6 or TO mice, male 8-10 weeks were placed in a heat box for 10 mins at 38° C., and treated with 60 mg/kg of SR291 [NA-(2-methoxyethyl)-L-arginine methyl ester] i.v. 30 mins later they were given 1 mg of zymosan i.p. A second dose of SR291 (60 mg/kg) was administered 2 h later and after 4 h mice were anesthetised with isofluorane and blood withdrawn by cardiac puncture. Mice were sacrificed and had 2 mls of ice cold PBS injected into their peritoneal cavity, the cavity was then gently massaged and cut open, the peritoneal washout was harvested and put on ice. Blood was spun down at 400 g, 10 mins at 4° C. The cells were spun at 4000 rpm for 5 mins at 4° C. Plasma was removed from the blood and frozen at −80° C. The exudates from the washout were removed and frozen at −80° C., the cell pellet was resuspended in 1 ml ice cold PBS and were counted on a haemocytometer. The cells were spun as before, the supernatant discarded and the cells frozen at −80° C. Polymorphonuclear (PMN) cell infiltrate into the peritoneal cavity was used to measure inflammation. […] Taken off at 4 hrs. […] Taken off at 4 hrs.

[4] = test system: zymosan-induced peritonitis; test: Zymosan-induced peritonitis, TO mice; format: in vivo; conditions: for cells 10^6/ml (individual animals 1-6): 60 mg/kg iv −30 min, +2 hrs, taken off at 4 hrs, listed as SR291, 60 mg/kg
Description: as §1

rat aortic rings [5] = test: NOx production from endotoxin-treated rat aortic rings in static culture; format: cell-based; conditions: endotoxin 10 μg/ml, compound 500 μM
Description: FIG. 1 is a graph showing the nitrate and nitrite (NOx) production from isolated rat aortic rings in static culture in the presence of either media alone (untreated); media plus 10 μg/ml LPS (LPS) and media plus 10 μg/ml LPS and 500 μM SR257 or SR291. n≧6; *p<0.0001 One Way ANOVA plus Bonferroni post hoc correction;
Effects of two compounds SR 291 [N^G-(2-methoxyethyl)-L-arginine methyl ester] and SR 257 [N^G-(2-methoxyethyl)-L-arginine]) have been tested in a series of models of endotoxin-induced vascular dysfunction. Treatment of rat aortic vascular rings in static culture with endotoxin (10 μg/ml) led to an increase in generation of nitric oxide (as measured by nitrite and nitrate). This increase in NO was prevented by treatment with 500 μM SR257 or SR291.

[6] = In vivo study: serum dimethylarginine levels after i.v. bolus; set-up: species or system Male Wistar rats; conditions: 4 hours after 60 mg/kg i.v. bolus, control 1.81 ± 0.23
Description: Male Wistar rats (250-300 g; Charles River, Margate, Kent, UK) were anaesthetised using Isoflurane. The jugular vein was cannulated. Animals were injected intravenously with a bolus dose of inhibitor (60 mg/kg) or saline. Anaesthesia was maintained for 4 hours at the end of which blood was obtained via cardiac puncture for the determination of serum dimethylarginine levels. [All animals received care in compliance with The British Home Office Regulations and Principles of Laboratory Animal Care. (Project licenses PPL/5344, PPL/4824, PPL 70/5580)]
SDMA is not a substrate for DDAH and the levels of SDMA would be expected to be the same of the treated and the control animals, and this was the case. Since there is a great deal of variability of the “normal” ADMA and SDMA level, it is useful to measure the ratio of ADMA and SDMA in each animal to provide a reliable indicator of the relative changes of these to substances.

DDAH = biological target: T2, DDAH (Rattus norvegicus, UniProt O08557); test: DDAH activity assay (rat kidney lysate, [14C]L-NMMA to [14C]citrulline); format: biochemical; conditions: 1 mM compound, [14C]L-NMMA 1 μmol/L, 1 h 37° C.
T2 construct: Rat kidney was homogenized in PBS; from tissue; host or cells: rat kidney homogenate, high-speed supernatant
T2 sequence (O08557 2-285 limits assumed): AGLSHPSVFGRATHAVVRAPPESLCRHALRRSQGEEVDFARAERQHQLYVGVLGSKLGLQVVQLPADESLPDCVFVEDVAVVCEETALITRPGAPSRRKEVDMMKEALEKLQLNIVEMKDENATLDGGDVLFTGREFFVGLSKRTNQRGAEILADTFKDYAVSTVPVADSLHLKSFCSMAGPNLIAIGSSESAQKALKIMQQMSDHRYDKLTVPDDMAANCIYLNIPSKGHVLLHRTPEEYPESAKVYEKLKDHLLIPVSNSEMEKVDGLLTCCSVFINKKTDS
Description: Rat kidney was homogenized in PBS containing PMSF 1 mM, leupeptin 5 μg/ml, pepstatin 5 μg/ml, chymostatin 5 μg/ml, and the lysate was centrifuged (4000 rpm. 20 min then supernatant further centrifuged for 40000 rpm, 30 min, 4° C.). The supernatants were analyzed for DDAH activity; [^14[…]) was added to the cell lysates (final volume 100 μl) and incubated for 1 h at 37° C. Dowex resin (0.5 ml) at neutral pH was immediately added to samples to terminate the reaction and bind unmetabolized L-NMMA. [^14C]Citrulline formation was determined by scintillation counting (Hewlett Packard).

RAW cells = test: Cell viability assay (MTT) in RAW cells
Description: RAW cells were treated with DDAH inhibitor compound (0.5 mM) in complete media for 24 h; cells were subsequently assessed for viability by MTT assay. Cell culture media was removed from cells and replaced with 200 μl complete media containing 3-[4,5-Dimethylthiazol-2-yl]-2,5-diphenyltetrazolium bromide (MTT 0.2 mg/ml) for 30 min at 37° C. MTT containing media was removed and 100 ul DMSO was added to solubilize cells; after shaking, plates were read at OD550 nm.

## COCCN=C(N)NCCCC(N)C(=O)OC [Example 28, N^G-(2-Methoxyethyl)-L-arginine methyl ester]
Rat aortic rings [1]
  endotoxin-induced hyporeactivity to vasoconstrictors: reversed dose dependently
eNOS; 0.1 mM compound
  % of control ± sd: 120.8 ± 17.80 [2] % of control
eNOS; 1 mM compound
  % of control ± sd: 112.5 ± 27.47 [4] % of control
[2]
  progressive fall in systemic BP: halted
iNOS
  OD units drug ± sd: 0.325 ± 0.009 OD units
[3]; C57 male 8-10 weeks, 60 mg/kg iv −30 min, taken off at 4 hrs, listed as SR291, 60 mg/kg
  cells million/ml (peritoneal washout, individual animals 1-5): 3 million/ml and 4 million/ml and 4.5 million/ml and 6.5 million/ml and 9 million/ml
[3]; combination of two datasets for the C57 mice, saline 6.7455
  cells 10^6/ml, mean: 4.2 10^6/ml
[3]; cumulative of Table 6 dataset, saline 9.1
  cells million/ml, mean: 5.4 million/ml
[3]; three separate experiments, 8-12 mice each, C57/Blk6 or TO mice, 60 mg/kg i.v.
  PMN infiltrate into the peritoneal cavity: significantly reduced
[4]; TO mice male 8-10 weeks, first study
  cells 10^6/ml (individual animals 1-6): 3.05 10^6/ml and 3.35 10^6/ml and 3.2 10^6/ml and 1.4 10^6/ml and 3.9 10^6/ml and 4.3 10^6/ml
[4]; TO mice, second study
  cells 10^6/ml (individual animals 1-6): 4.3 10^6/ml (2×) and 4.6 10^6/ml and 4.85 10^6/ml and 5.2 10^6/ml and 3.9 10^6/ml
[4]; cumulative of Table 9 dataset, saline 4.783333
  cells 10^6/ml, mean: 3.2 10^6/ml
[4]; cumulative of Table 11 dataset, saline 6.125
  cells 10^6/ml, mean: 4.525 10^6/ml
[4]; cumulative of the two datasets of Tables 9 and 11, saline 5.454167
  cells 10^6/ml, mean: 3.8625 10^6/ml
Rat aortic rings [5]
  endotoxin-induced increase in NO (nitrite and nitrate): prevented
[6]
  ADMA:SDMA ± sd: 2.73 ± 0.44
DDAH
  inhibition at 1000 µM: 83%
RAW cells
  OD units drug ± sd: 2.41 ± 0.10 OD units
